≈ marks a conversion by molar mass, not a printed value. Numbered stars: 1 amine (or outer) side, 2 acyl side, 3 side chain; on linkers, the order of the positions; unused ones are H or OH. Bridge positions count the residues as written; N and C are the ends. Square brackets hold non-standard residues; d marks the D form. Peptide text beside a SMILES is read from it. * marks the point of attachment. ξ: configuration not given here. ξAsp(3ξ-OH) = NC(C(=O)O)C(O)C(=O)O; X3 = O=C(C(N[*:1])C(O)CCl)[*:2]; X2 = CCCCCCCCCCCC(O)CC(=O)*; Orn = NCCC[CH](N)C(=O)O; hSer = N[CH](CCO)C(=O)O; Dab = NCC[CH](N)C(=O)O; Dhb = C/C=C(\N)C(=O)O
Key:
fungal isolates = assay: Fungicidal activity (MFC), fungal isolates overall; assay type: cell-based, fungi; details: Table 2 organisms
Experimental: (§1) Medium: Liquid RPMI 1640 (RPMI) medium with L-glutamine and without sodium bicarbonate (Sigma Chemical Co., R-6504; St. Louis, Mo.) buffered with 0.165M MOPS (34.54 g/liter) was used for in vitro antifungal tests. The medium was adjusted to pH 7.0 with 10M NaOH and filter sterilized.
(§2) Lipodepsipeptide Dilutions: All stock drug solution concentrations were at least 10-fold higher than the highest concentration tested. AmB, ketoconazole, and the test compounds (SR-E, ST-B, and SS-A) were dissolved in sterile distilled water, 0.2N HCl, and 0.001N HCl, respectively. Each stock solution was diluted to 2× the highest concentration of drug tested with RPMI. Two-fold dilutions were made with RPMI medium.
Preparation of Inoculum Suspensions: On Sabouraud dextose agar (SDA; BBL, Becton and Dickinson and Co., Cockeysville, Md.) all isolates were subcultured at least twice before use to ensure purity and viability. […] The turbidity of each mixed suspension was measured at 530 nm and adjusted to 1×10^6 to 5×10^6 CFU/ml by the NCCLS spectrophotometric method described by National Committee for Clinical Laboratory Standards. […]
Aspergillus fumigatus and Mucor spp. were grown for 1 wk at 35° C. […] The stock suspensions of all filamentous fungi were measured at 530 nm and adjusted to 85-87% transmission. The concentration (1×10^6 to 5×10^6 CFU/ml) was determined by hemacytometer count or plate count on SDA. […]

Saccharomyces cerevisiae [1] = assay: Minimum Fungicidal Concentration (MFC); assay type: cell-based; details: Table 2, 1 strain tested more than once, 24 hr
Experimental: as §1, §2
(§3) Preparation of Inoculum Suspensions: On Sabouraud dextose agar (SDA; BBL, Becton and Dickinson and Co., Cockeysville, Md.) all isolates were subcultured at least twice before use to ensure purity and viability. Candida spp. and Saccharomyces cerevisiae were grown for 24 hr at 35° C. Isolates of Cryptococcus neoformans were grown for 48 hr at 35° C. Yeast cells from at least five 1-mm-diameter colonies were suspended in 5 ml of sterile 0.85% saline. The resulting suspension was vortexed for 15 sec. The turbidity of each mixed suspension was measured at 530 nm and adjusted to 1×10^6 to 5×10^6 CFU/ml by the NCCLS spectrophotometric method described by National Committee for Clinical Laboratory Standards. 1992. Reference method for broth dilution antifungal susceptibility testing of yeasts; proposed standard, NCCLS document M27-P (ISBN 1-56238-186-5). NCCLS, Villanova. The final transmission of each yeast suspension ranged from 85-87%.
(§4) Aspergillus fumigatus and Mucor spp. were grown for 1 wk at 35° C. The dermatophytes, Microsporum spp. and Trichophyton spp., were grown for two wk at 30° C. Fungal spores were washed from the plates of all good spore formers (A. fumigatus, Mucor spp., Microsporum canis and Trichophyton spp.) by placing 5 ml of 0.85% saline with 0.2% Tween 80 on the plates and mixing with an inoculating loop. The spore/mycelium suspension was drawn off with a pipette and allowed to settle for at least 5 min. For the poor spore-forming Microsporum audouinii, the procedure was the same except the spore/mycelial suspension was homogenized with a ground glass tissue homogenizer and then allowed to settle for at least 5 min. A small amount of the supernatant was transferred to 5 ml of sterile saline and vortexed. The stock suspensions of all filamentous fungi were measured at 530 nm and adjusted to 85-87% transmission. The concentration (1×10^6 to 5×10^6 CFU/ml) was determined by hemacytometer count or plate count on SDA. All stock suspensions were diluted 1000-fold with RPMI, or 2× the final desired test inocula. The 2× inoculum was diluted 1:1 when the wells were inoculated, and the desired inoculum size was achieved.
(§5) Broth Microdilution Test: Broth microdilution tests were performed using sterile, disposable, multiwell microdilution plates (96 round U-bottom wells) (Falcon 3077; Becton and Dickinson Labware, Lincoln Park, N.J.). The drugs (2× concentrations) were dispensed into the wells of rows number 1 to 10 of the microdilution plates in 100 μl volumes from highest drug concentration to lowest drug concentration. Each well was inoculated with 100 μl of the corresponding 2× concentrated fungal suspension. The wells of row 11 contained the inoculum with drug-free media as a positive growth control and the wells of row 12 contained uninoculated-drug-free medium as a sterility control.
(§6) Incubation and Scoring of MIC: All cultures were incubated without shaking at the temperature used during subculture. Incubation times were 48 hr for Candida spp., S. cerevisiae, A. fumigatus, and Mucor spp; 72 hr for C. neoformans; and 7 days for Microsporum and Trichophyton spp. […]

Candida rugosa [2] = assay: Minimum Fungicidal Concentration (MFC); assay type: cell-based; details: Table 2, 2 isolates, 24 hr
Experimental: as §1, §2, §3, §4, §5, §6

Candida lusitaniae [3] = assay: Minimum Fungicidal Concentration (MFC); assay type: cell-based; details: Table 2, 2 isolates, 24 hr
Experimental: as §1, §2, §3, §4, §5, §6

Candida kefyr [4] = assay: Minimum Fungicidal Concentration (MFC); assay type: cell-based; details: Table 2, 1 isolate, 24 hr
Experimental: as §1, §2, §3, §4, §5, §6

Candida krusei [5] = assay: Minimum Fungicidal Concentration (MFC); assay type: cell-based; details: Table 2, 2 isolates, 24 hr
Experimental: as §1, §2, §3, §4, §5, §6

Candida tropicalis [6] = assay: Minimum Fungicidal Concentration (MFC); assay type: cell-based; details: Table 2, 2 isolates, 24 hr
Experimental: as §1, §2, §3, §4, §5, §6

Candida parapsilosis [7] = assay: Minimum Fungicidal Concentration (MFC); assay type: cell-based; details: Table 2, 2 isolates, 24 hr
Experimental: as §1, §2, §3, §4, §5, §6

Saccharomyces cerevisiae [8] = assay: Broth microdilution MIC; assay type: cell-based; details: Table 1 (MICs), 1 strain tested more than once (control ATCC 36375), 48 hr
Experimental: as §1, §2, §3, §4, §5, §6

Candida albicans [9] = assay: Broth microdilution MIC; assay type: cell-based; details: for MIC range: Table 1 (MICs), Candida albicans, 20 isolates, RPMI pH 7.0, 48 hr, Ktz read at score 2, others at score 0
Experimental: as §1, §2, §3, §4, §5, §6

Candida rugosa [10] = assay: Broth microdilution MIC; assay type: cell-based; details: Table 1 (MICs); Candida rugosa, 2 isolates; 48 hr
Experimental: as §1, §2, §3, §4, §5, §6

Microsporum spp. [11] = assay: Broth microdilution MIC; assay type: cell-based; details: Table 1 (MICs), 2 isolates, 7 days
Experimental: as §1, §2, §3, §4, §5, §6

Candida lusitaniae [12] = assay: Broth microdilution MIC; assay type: cell-based; details: Table 1 (MICs), 2 isolates, 48 hr
Experimental: as §1, §2, §3, §4, §5, §6

Candida kefyr [13] = assay: Broth microdilution MIC; assay type: cell-based; details: Table 1 (MICs), 1 isolate, 48 hr
Experimental: as §1, §2, §3, §4, §5, §6

Candida krusei [14] = assay: Broth microdilution MIC; assay type: cell-based; details: Table 1 (MICs), 2 isolates, 48 hr
Experimental: as §1, §2, §3, §4, §5, §6

Cryptococcus neoformans [15] = assay: Broth microdilution MIC; assay type: cell-based; details: Table 1 (MICs); Cryptococcus neoformans, 14 isolates; 72 hr
Experimental: as §1, §2, §3, §4, §5, §6

Trichophyton spp. [16] = assay: Broth microdilution MIC; assay type: cell-based; details: Table 1 (MICs), 3 isolates, 7 days
Experimental: as §1, §2, §3, §4, §5, §6

Candida tropicalis [17] = assay: Broth microdilution MIC; assay type: cell-based; details: Table 1 (MICs); Candida tropicalis, 2 isolates; 48 hr
Experimental: as §1, §2, §3, §4, §5, §6

Candida parapsilosis [18] = assay: Broth microdilution MIC; assay type: cell-based; details: Table 1 (MICs), 2 isolates, 48 hr
Experimental: as §1, §2, §3, §4, §5, §6

Candida albicans [19] = assay: Minimum Fungicidal Concentration (MFC); assay type: cell-based; details: Table 2, 20 isolates, subculture on drug-free SDA 24 hr
Experimental: as §1, §2, §3, §4, §5, §6

Microsporum spp. [20] = assay: Minimum Fungicidal Concentration (MFC); assay type: cell-based; details: Table 2, 2 isolates, 7 d
Experimental: as §1, §2, §3, §4, §5, §6

Aspergillus fumigatus [21] = assay: Minimum Fungicidal Concentration (MFC); assay type: cell-based; details: Table 2, 16 isolates, 48 hr
Experimental: as §1, §2, §3, §4, §5, §6

Cryptococcus neoformans [22] = assay: Minimum Fungicidal Concentration (MFC); assay type: cell-based; details: Table 2, 14 isolates, 48 hr
Experimental: as §1, §2, §3, §4, §5, §6

Trichophyton spp. [23] = assay: Minimum Fungicidal Concentration (MFC); assay type: cell-based; details: Table 2, 3 isolates, 7 d
Experimental: as §1, §2, §3, §4, §5, §6

Aspergillus fumigatus [24] = assay: Broth microdilution MIC; assay type: cell-based; details: Table 1 (MICs), 16 isolates, 48 hr
Experimental: as §1, §2, §3, §4, §5, §6

CC(=O)N1CCN(c2ccc(OCC3COC(Cn4ccnc4)(c4ccc(Cl)cc4Cl)O3)cc2)CC1 (stereo not shown) [Ktz, ketoconazole, reference compound] was tested, and the “fungicidal activity” value (fungal isolates) was “fungicidal activity only against C. krusei”, the “MFC (μg/ml) range” value (Saccharomyces cerevisiae [1]) was 0.6 to 1.25 µg/mL and the “MFC (μg/ml) range” value (Candida rugosa [2]) was no more than 0.02 to 0.08 µg/mL. The “MFC (μg/ml) range” value (Candida lusitaniae [3]) was no more than 0.02 µg/mL, the “MFC (μg/ml) range” value (Candida kefyr [4]) was 1.25 µg/mL (≈ 2.35 µM) and the “MFC (μg/ml) range” value (Candida krusei [5]) was 0.15 µg/mL (≈ 0.282 µM). The “MFC (μg/ml) range” value (Candida tropicalis [6]) was 2.5 to 10 µg/mL, the “MFC (μg/ml) range” value (Candida parapsilosis [7]) was 0.04 µg/mL (≈ 0.0753 µM) and the “MFC (μg/ml) range” value (Saccharomyces cerevisiae [8]) was 0.15 µg/mL (≈ 0.282 µM). It also gave an MIC range (Candida albicans [9]) of 0.02 to 10 µg/mL, an MIC, one strain of C. albicans (Candida albicans [9]; one strain of C. albicans resistant to ketoconazole) of 10 µg/mL and an MIC range (Candida rugosa [10]) of 0.02 µg/mL (≈ 0.0376 µM). The MIC range (Microsporum spp. [11]) was 0.8 to 1.6 µg/mL, the MIC range (Candida lusitaniae [12]) was 0.02 µg/mL (≈ 0.0376 µM) and the “MIC (μg/ml) range” value (Candida kefyr [13]) was 0.02 µg/mL (≈ 0.0376 µM). For the same molecule, the “MIC (μg/ml) range” value (Candida krusei [14]) was 0.15 µg/mL (≈ 0.282 µM), the MIC range (Cryptococcus neoformans [15]) was 0.04 to 0.6 µg/mL and the MIC range (Trichophyton spp. [16]) was 0.4 to 3.1 µg/mL. For the same molecule, the “MIC (μg/ml) range” value (Candida tropicalis [17]) was 0.08 to 0.6 µg/mL and the MIC range (Candida parapsilosis [18]) was 0.02 µg/mL (≈ 0.0376 µM).
For C/C=C1\NC(=O)C(C(C)O)NC(=O)C(CCCN)NC(=O)C(CCO)NC(=O)C(CCN)NC(=O)C(CCN)NC(=O)C(NC(=O)CC(O)CCCCCCCCCCC)COC(=O)C(C(O)CCl)NC(=O)C(C(O)C(=O)O)NC1=O (stereo not shown) [SS-A, syringostatin-A] (X2-S[Dab][Dab][hSer][Orn]T[Dhb][ξAsp(3ξ-OH)][X3]; ester 1-C; configuration not given here), the “MFC (μg/ml) range” value (Saccharomyces cerevisiae [1]) was 5 µg/mL (≈ 4.24 µM), the “MFC (μg/ml) range” value (Candida albicans [19]) was 2.5 to 10 µg/mL and the “MFC (μg/ml) range” value (Microsporum spp. [20]) was 5 µg/mL (≈ 4.24 µM). For the same molecule, the “MFC (μg/ml) range” value (Aspergillus fumigatus [21]) was 5 to 40 µg/mL, the “MFC (μg/ml) range” value (Candida lusitaniae [3]) was 5 µg/mL (≈ 4.24 µM) and the “MFC (μg/ml) range” value (Candida kefyr [4]) was 2.5 µg/mL (≈ 2.12 µM). The “MFC (μg/ml) range” value (Candida krusei [5]) was 10 to 20 µg/mL, the “MFC (μg/ml) range” value (Cryptococcus neoformans [22]) was 2.5 to 10 µg/mL and the “MFC (μg/ml) range” value (Trichophyton spp. [23]) was 5 µg/mL (≈ 4.24 µM). For the same molecule, the “MFC (μg/ml) range” value (Candida tropicalis [6]) was 5 µg/mL (≈ 4.24 µM), the “MFC (μg/ml) range” value (Candida parapsilosis [7]) was 2.5 to 10 µg/mL and the “MFC (μg/ml) range” value (Saccharomyces cerevisiae [8]) was 2.5 µg/mL (≈ 2.12 µM). It also gave an MIC range (Candida albicans [9]) of 2.5 to 5 µg/mL, an MIC range (Candida rugosa [10]) of 10 to 20 µg/mL and an MIC range (Microsporum spp. [11]) of 2.5 to 5 µg/mL. For the same molecule, the MIC range (Aspergillus fumigatus [24]) was 5 to 40 µg/mL, the MIC range (Candida lusitaniae [12]) was 5 µg/mL (≈ 4.24 µM) and the “MIC (μg/ml) range” value (Candida kefyr [13]) was 2.5 µg/mL (≈ 2.12 µM). For the same molecule, the “MIC (μg/ml) range” value (Candida krusei [14]) was 10 µg/mL (≈ 8.48 µM), the MIC range (Cryptococcus neoformans [15]) was 2.5 to 10 µg/mL and the MIC range (Trichophyton spp. [16]) was 2.5 to 5 µg/mL. For the same molecule, the “MIC (μg/ml) range” value (Candida tropicalis [17]) was 2.5 to 5 µg/mL and the MIC range (Candida parapsilosis [18]) was 2.5 to 5 µg/mL.

From patent US5830855A, “Lipodepsipeptides as antifungal and fungicidal agents” (priority 1996, dated 1998)
